Source: patent publication US9556165B2 (priority 2012, dated 2017)
Converted amounts (≈) assume the structure as drawn. Where two headings read alike, the source gives them in different places.

Key:
Format in all cases: cell-based
C. freundii K21/3034 = assay: MIC determination, broth microdilution (CLSI); conditions: Citrobacter freundii, K21/3034, strain 4
H. influenzae ATCC 49247 = assay: MIC determination, broth microdilution (CLSI); conditions: Haemophilus influenzae
A. baumannii ATCC15308 = assay: MIC determination, broth microdilution (CLSI); conditions: Acinetobacter baumannii, ATCC15308, strain 9
strain 19 = assay: MIC determination, broth microdilution (CLSI)
E. coli J62 = assay: MIC determination, broth microdilution (CLSI); conditions: Escherichia coli, J62, strain 17
B. fragilis 6688 = assay: MIC determination, broth microdilution (CLSI); conditions: Bacteroides fragilis, 6688, strain 15
S. aureus 133 = assay: MIC determination, broth microdilution (CLSI)
E. coli ATCC25922 = assay: MIC determination, broth microdilution (CLSI); conditions: Escherichia coli, ATCC25922, strain 1
[1] = tested on: P. aeruginosa 2297 (AmpC wt); assay: MIC determination, broth microdilution (CLSI); conditions: Pseudomonas aeruginosa, strain 7
P. aeruginosa PAO1 = assay: MIC determination, broth microdilution (CLSI); conditions: Pseudomonas aeruginosa, PAO1, strain 6
M. catarrhalis ICB489 = assay: MIC determination, broth microdilution (CLSI); conditions: Moraxella catarrhalis, ICB489, strain 12
E. cloacae 34654 = assay: MIC determination, broth microdilution (CLSI); conditions: Enterobacter cloacae, 34654, strain 3
S. pneumoniae 113 = assay: MIC determination, broth microdilution (CLSI)
M. morganii 126/3048 = assay: MIC determination, broth microdilution (CLSI); conditions: Morganella morganii, 126/3048, strain 5
strain 21 = assay: MIC determination, broth microdilution (CLSI)
K. pneumoniae 60 = assay: MIC determination, broth microdilution (CLSI); conditions: Klebsiella pneumoniae, 60, strain 2
strain 20 = assay: MIC determination, broth microdilution (CLSI)
[2] = tested on: P. aeruginosa 2297-con (AmpC derepressed); assay: MIC determination, broth microdilution (CLSI); conditions: Pseudomonas aeruginosa, read-out: strain 8 MIC, strain 8
E. coli J62-TEM-3 = assay: MIC determination, broth microdilution (CLSI); conditions: Escherichia coli
S. maltophilia ICB7569 = assay: MIC determination, broth microdilution (CLSI); conditions: Stenotrophomonas maltophilia, ICB7569, strain 10
Bacteria = assay: MIC determination in combination with β-lactamase inhibitors (constant 4 μg/mL)
C. perfringens DSM756 = assay: microbe, parasite or virus in culture; conditions: Clostridium perfringens, DSM756, read-out: MIC strain 16 (C. perfringens DSM756), strain 16; broth microdilution
[3] = Staphylococcus aureus, 133, strain 11, read-out: strain 11 MIC
[4] = Streptococcus pneumoniae, 113, strain 14, read-out: strain 14 MIC
[5] = J62TEM3, read-out: strain 18 MIC, strain 18

| Structure (SMILES) | MIC (C. freundii K21/3034) | MIC (A. baumannii ATCC15308) | MIC (strain 19) | MIC (E. coli J62; read-out: strain 17 MIC) | MIC (E. coli ATCC25922) | MIC [1] | MIC (P. aeruginosa PAO1) | MIC (E. cloacae 34654) | MIC (S. pneumoniae 113; [4]) | MIC (M. morganii 126/3048) | MIC (strain 21) | MIC (K. pneumoniae 60) | MIC (strain 20) | MIC [2] | MIC (E. coli J62-TEM-3; [5]) | MIC (S. maltophilia ICB7569) | further results |
| --- | --- | --- | --- | --- | --- | --- | --- | --- | --- | --- | --- | --- | --- | --- | --- | --- | --- |
| C[C@H]1[C@H](NC(=O)/C(=N\OCCCOc2ccc(C(=N)N)cc2)c2csc(N)n2)C(=O)N1S(=O)(=O)O [Example 37, (2S,3S)-3-{[(2Z)-2-(2-Amino-1,3-thiazol-4-yl)-2-[{3-(4-carbamimidoylphenoxy)propoxy]imino}acetyl]amino}-2-methyl-4-oxoazetidine-1-sulfonic acid] | 2 µg/mL (≈ 3.81 µM) | 4 µg/mL (≈ 7.61 µM) | 2 µg/mL (≈ 3.81 µM) | 4 µg/mL (≈ 7.61 µM) | 2 µg/mL (≈ 3.81 µM) | 8 µg/mL (≈ 15.2 µM) | 8 µg/mL (≈ 15.2 µM) | 2 µg/mL (≈ 3.81 µM) | 4 µg/mL (≈ 7.61 µM) | 1 µg/mL (≈ 1.9 µM) | 2 µg/mL (≈ 3.81 µM) | 2 µg/mL (≈ 3.81 µM) | 2 µg/mL (≈ 3.81 µM) |  |  |  | MIC (H. influenzae ATCC 49247; ATCC49247, strain 13, read-out: strain 13 MIC): 1 µg/mL (≈ 1.9 µM); MIC (B. fragilis 6688; read-out: strain 15 MIC): 16 µg/mL (≈ 30.4 µM); MIC (S. aureus 133; [3]): 1 µg/mL (≈ 1.9 µM); MIC (M. catarrhalis ICB489): 0.5 µg/mL (≈ 0.951 µM) |
| C[C@H]1[C@H](NC(=O)/C(=N\OCCSc2ccc(C(=N)N)cc2)c2csc(N)n2)C(=O)N1S(=O)(=O)O [Example 6, (2S,3S)-3-{[(2Z)-2-(2-Amino-1,3-thiazol-4-yl)-2-({2-[(4-carbamimidoylphenyl)sulfanyl]ethoxy}imino)acetyl]amino}-2-methyl-4-oxoazetidine-1-sulfonic acid] | ≤ 0.125 µg/mL | 1 µg/mL (≈ 1.9 µM) | 0.25 µg/mL (≈ 0.474 µM) | 0.25 µg/mL (≈ 0.474 µM) | 0.125 µg/mL (≈ 0.237 µM) | 8 µg/mL (≈ 15.2 µM) | 4 µg/mL (≈ 7.58 µM) | 0.125 µg/mL (≈ 0.237 µM) | 4 µg/mL (≈ 7.58 µM) | ≤ 0.125 µg/mL | 0.25 µg/mL (≈ 0.474 µM) | 0.25 µg/mL (≈ 0.474 µM) | 0.25 µg/mL (≈ 0.474 µM) | 16 µg/mL (≈ 30.3 µM) | 16 µg/mL (≈ 30.3 µM) | 32 µg/mL (≈ 60.7 µM) |  |
| C[C@H]1[C@H](NC(=O)/C(=N\OCCOc2ccc(C(=N)N)cc2F)c2csc(N)n2)C(=O)N1S(=O)(=O)O [Example 19, (2S,3S)-3-{[(2Z)-2-(2-Amino-1,3-thiazol-4-yl)-2-{[2-(4-carbamimidoyl-2-fluorophenoxy)ethoxy]imino}acetyl]amino}-2-methyl-4-oxoazetidine-1-sulfonic acid] | 0.5 µg/mL (≈ 0.944 µM) | 4 µg/mL (≈ 7.55 µM) | 0.5 µg/mL (≈ 0.944 µM) | 0.5 µg/mL (≈ 0.944 µM) | 0.5 µg/mL (≈ 0.944 µM) | 16 µg/mL (≈ 30.2 µM) | 8 µg/mL (≈ 15.1 µM) | 0.5 µg/mL (≈ 0.944 µM) | 16 µg/mL (≈ 30.2 µM) | 0.25 µg/mL (≈ 0.472 µM) | 1 µg/mL (≈ 1.89 µM) | 0.125 µg/mL (≈ 0.236 µM) | 1 µg/mL (≈ 1.89 µM) |  | 32 µg/mL (≈ 60.4 µM) |  |  |
| C[C@@H]1[C@H](NC(=O)/C(=N\OCCOc2ccc(C(=N)N)cc2)c2csc(N)n2)C(=O)N1OS(=O)(=O)O [Example 10, (2Z)-2-(2-Amino-1,3-thiazol-4-yl)-2-{[2-(4-carbamimidoylphenoxy)ethoxy]imino}-N-[(2R,3S)-2-methyl-4-oxo-1-(sulfooxy)azetidin-3-yl]ethanamide] | 1 µg/mL (≈ 1.9 µM) | 8 µg/mL (≈ 15.2 µM) | 0.5 µg/mL (≈ 0.948 µM) | 0.5 µg/mL (≈ 0.948 µM) | 0.5 µg/mL (≈ 0.948 µM) | 8 µg/mL (≈ 15.2 µM) | 8 µg/mL (≈ 15.2 µM) | 1 µg/mL (≈ 1.9 µM) | 2 µg/mL (≈ 3.79 µM) | 4 µg/mL (≈ 7.58 µM) | 0.5 µg/mL (≈ 0.948 µM) | 2 µg/mL (≈ 3.79 µM) | 0.5 µg/mL (≈ 0.948 µM) |  |  |  |  |
| CC1(C)[C@H](NC(=O)/C(=N\OCCOc2ccc(C(=N)N)c(O)c2)c2csc(N)n2)C(=O)N1OS(=O)(=O)O [Example 1, (2Z)-2-(2-Amino-1,3-thiazol-4-yl)-2-{[2-(4-carbamimidoyl-3-hydroxyphenoxy)ethoxy]imino}-N-[(3S)-2,2-dimethyl-4-oxo-1-(sulfooxy)azetidin-3-yl]ethanamide] | 0.5 µg/mL (≈ 0.897 µM) | 8 µg/mL (≈ 14.3 µM) | 0.25 µg/mL (≈ 0.448 µM) | 0.25 µg/mL (≈ 0.448 µM) | 0.25 µg/mL (≈ 0.448 µM) | 8 µg/mL (≈ 14.3 µM) | 4 µg/mL (≈ 7.17 µM) | 0.5 µg/mL (≈ 0.897 µM) | 16 µg/mL (≈ 28.7 µM) | 0.125 µg/mL (≈ 0.224 µM) | 0.25 µg/mL (≈ 0.448 µM) | 0.25 µg/mL (≈ 0.448 µM) | 0.25 µg/mL (≈ 0.448 µM) | 4 µg/mL (≈ 7.17 µM) | 16 µg/mL (≈ 28.7 µM) | 8 µg/mL (≈ 14.3 µM) |  |
| CC1(C)[C@H](NC(=O)/C(=N\OCCOc2ccc(C(=N)N)nn2)c2csc(N)n2)C(=O)N1OS(=O)(=O)O [Example 29, (2Z)-2-(2-Amino-1,3-thiazol-4-yl)-2-({2-[(6-carbamimidoylpyridazin-3-yl)oxy]-ethoxy}imino)-N-[(3S)-2,2-dimethyl-4-oxo-1-(sulfooxy)azetidin-3-yl]ethanamide] | 0.25 µg/mL (≈ 0.46 µM) | 2 µg/mL (≈ 3.68 µM) | 0.5 µg/mL (≈ 0.92 µM) | 0.5 µg/mL (≈ 0.92 µM) | 0.25 µg/mL (≈ 0.46 µM) | 16 µg/mL (≈ 29.4 µM) | 8 µg/mL (≈ 14.7 µM) | 0.5 µg/mL (≈ 0.92 µM) | 4 µg/mL (≈ 7.36 µM) | 0.25 µg/mL (≈ 0.46 µM) | 0.5 µg/mL (≈ 0.92 µM) | 0.25 µg/mL (≈ 0.46 µM) | 0.5 µg/mL (≈ 0.92 µM) | 8 µg/mL (≈ 14.7 µM) | 8 µg/mL (≈ 14.7 µM) | 8 µg/mL (≈ 14.7 µM) |  |
| CC1(C)[C@H](NC(=O)/C(=N\O[C@@H](COc2ccc(C(=N)NCC3CCCN3)cc2)C(=O)O)c2csc(N)n2)C(=O)N1OS(=O)(=O)O (stereo partly drawn) [Example 98, (2S)-2-({[(1Z)-1-(2-Amino-1,3-thiazol-4-yl)-2-{[(3S)-2,2-dimethyl-4-oxo-1-(sulfooxy)-azetidin-3-yl]amino}-2-oxoethylidene]amino}oxy)-3-{4-[N-(pyrrolidin-2-ylmethyl)carbamimidoyl]phenoxy}propanoic acid] | 0.125 µg/mL (≈ 0.187 µM) | 1 µg/mL (≈ 1.5 µM) |  |  | 0.125 µg/mL (≈ 0.187 µM) | 2 µg/mL (≈ 2.99 µM) | 1 µg/mL (≈ 1.5 µM) | 0.125 µg/mL (≈ 0.187 µM) |  | ≤ 0.063 µg/mL |  | 0.125 µg/mL (≈ 0.187 µM) |  | 2 µg/mL (≈ 2.99 µM) |  | 4 µg/mL (≈ 5.98 µM) | MIC (H. influenzae ATCC 49247; ATCC49247, strain 12, broth microdilution, read-out: MIC strain 12 (H. influenzae ATCC 49247)): ≤ 0.063 µg/mL; MIC (E. coli J62-TEM-3; J62TEM3, read-out: MIC strain 18 (E. coli J62-TEM-3), strain 18, broth microdilution): 8 µg/mL (≈ 12 µM); MIC (E. coli J62; broth microdilution, read-out: MIC strain 17 (E. coli J62)): 0.125 µg/mL (≈ 0.187 µM); MIC (B. fragilis 6688; broth microdilution, read-out: MIC strain 15 (B. fragilis 6688)): 8 µg/mL (≈ 12 µM); MIC (S. aureus 133; [3]): ≤ 0.063 µg/mL; MIC (S. aureus 133; Staphylococcus aureus, 133, strain 14, broth microdilution, read-out: MIC strain 14 (S. aureus 133)): 32 µg/mL (≈ 47.9 µM); MIC strain 19 (E. coli J62-TEM-3 + 4 μg/mL clavulanic acid) (Bacteria; strain 19, E. coli J62-TEM-3 + 4 μg/mL clavulanic acid): 0.125 µg/mL; MIC strain 20 (E. coli J62-TEM-3 + 4 μg/mL sulbactam) (Bacteria; strain 20, E. coli J62-TEM-3 + 4 μg/mL sulbactam): 0.125 µg/mL; MIC strain 21 (E. coli J62-TEM-3 + 4 μg/mL tazobactam) (Bacteria; strain 21, E. coli J62-TEM-3 + 4 μg/mL tazobactam): 0.125 µg/mL; MIC (S. pneumoniae 113; Streptococcus pneumoniae, 113, strain 13, broth microdilution, read-out: MIC strain 13 (S. pneumoniae 113)): 0.5 µg/mL (≈ 0.748 µM); MIC (C. perfringens DSM756): 2 µg/mL (≈ 2.99 µM) |
